Drawing on ChEMBL document CHEMBL5518197, “Recent advances in the development of deubiquitinases inhibitors as antitumor agents” (Eur J Med Chem, 2024), this text covers IC50 for ten molecules.

The target of assay [1] is T1, Ubiquitin carboxyl-terminal hydrolase isozyme L1 (Homo sapiens, UniProt P09936).
T1 sequence (P09936 whole entry): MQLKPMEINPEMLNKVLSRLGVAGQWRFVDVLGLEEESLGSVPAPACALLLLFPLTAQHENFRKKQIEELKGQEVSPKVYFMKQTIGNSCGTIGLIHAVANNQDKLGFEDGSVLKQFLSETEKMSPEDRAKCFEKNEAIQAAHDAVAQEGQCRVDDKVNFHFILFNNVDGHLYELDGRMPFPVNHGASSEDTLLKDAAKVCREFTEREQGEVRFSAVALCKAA
Put plainly: Inhibition of His-tagged UCH-L1 (unknown origin) expressed in Escherichia coli BL21 (DE3) by fluorescence based analysis.

Assay [2] has as its target T2, Ubiquitin carboxyl-terminal hydrolase 19 (Homo sapiens, UniProt O94966).
T2 sequence (O94966 whole entry): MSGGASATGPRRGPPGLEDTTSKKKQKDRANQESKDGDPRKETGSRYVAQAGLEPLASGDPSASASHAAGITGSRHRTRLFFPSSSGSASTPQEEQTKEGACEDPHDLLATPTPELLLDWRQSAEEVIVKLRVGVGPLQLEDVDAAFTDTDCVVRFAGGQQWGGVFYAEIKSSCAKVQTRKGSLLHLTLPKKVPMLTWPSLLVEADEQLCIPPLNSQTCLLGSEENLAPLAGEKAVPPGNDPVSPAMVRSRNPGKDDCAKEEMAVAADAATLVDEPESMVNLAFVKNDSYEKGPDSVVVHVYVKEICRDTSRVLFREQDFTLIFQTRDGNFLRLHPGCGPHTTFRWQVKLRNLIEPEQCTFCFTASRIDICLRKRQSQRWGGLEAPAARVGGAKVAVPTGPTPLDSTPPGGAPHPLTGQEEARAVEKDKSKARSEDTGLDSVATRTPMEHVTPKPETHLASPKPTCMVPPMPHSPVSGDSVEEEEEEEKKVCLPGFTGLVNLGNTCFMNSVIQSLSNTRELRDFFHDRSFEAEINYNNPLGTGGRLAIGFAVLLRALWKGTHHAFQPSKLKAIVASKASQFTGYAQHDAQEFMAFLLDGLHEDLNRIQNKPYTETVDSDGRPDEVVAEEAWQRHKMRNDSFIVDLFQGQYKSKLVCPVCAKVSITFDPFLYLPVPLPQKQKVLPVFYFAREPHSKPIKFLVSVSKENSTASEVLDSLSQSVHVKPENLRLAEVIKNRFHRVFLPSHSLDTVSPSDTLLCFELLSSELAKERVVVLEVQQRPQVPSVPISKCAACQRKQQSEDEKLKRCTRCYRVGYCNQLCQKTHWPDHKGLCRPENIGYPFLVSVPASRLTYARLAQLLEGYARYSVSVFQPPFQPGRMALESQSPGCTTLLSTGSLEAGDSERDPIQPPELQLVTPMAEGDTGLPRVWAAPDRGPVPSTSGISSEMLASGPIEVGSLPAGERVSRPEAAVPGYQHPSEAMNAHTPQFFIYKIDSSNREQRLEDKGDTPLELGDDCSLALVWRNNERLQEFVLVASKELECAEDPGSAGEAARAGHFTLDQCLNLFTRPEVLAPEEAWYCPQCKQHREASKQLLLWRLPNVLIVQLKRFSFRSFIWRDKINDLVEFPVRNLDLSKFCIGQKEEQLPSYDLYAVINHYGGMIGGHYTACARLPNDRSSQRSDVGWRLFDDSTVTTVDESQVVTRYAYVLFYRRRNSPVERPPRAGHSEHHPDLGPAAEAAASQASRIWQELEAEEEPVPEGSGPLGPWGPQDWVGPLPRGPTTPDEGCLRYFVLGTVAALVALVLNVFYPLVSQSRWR
The assay can be described thus: Inhibition of C-terminal 6-His tagged USP19 (unknown origin) (1 to 1290 residues) using Ub-Rh110MP as substrate by fluorescence based assay.

The next assay deals with T3, Caspase-3 (Homo sapiens, UniProt P42574).
T3 sequence (P42574 whole entry): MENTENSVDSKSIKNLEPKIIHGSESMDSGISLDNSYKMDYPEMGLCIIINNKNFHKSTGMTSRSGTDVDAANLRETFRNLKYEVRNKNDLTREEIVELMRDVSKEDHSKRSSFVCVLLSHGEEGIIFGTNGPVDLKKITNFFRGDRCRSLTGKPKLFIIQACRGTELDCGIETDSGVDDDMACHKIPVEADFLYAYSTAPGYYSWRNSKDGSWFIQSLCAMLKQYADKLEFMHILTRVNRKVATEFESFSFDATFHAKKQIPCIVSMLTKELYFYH
Put plainly: Inhibition of caspase-3 (unknown origin) by microplate reader analysis.

Assay [3] has as its target T1, Ubiquitin carboxyl-terminal hydrolase isozyme L1. The assay can be described thus: Inhibition of human UCH-L1.
The target is the same in assay [4]. Put plainly: Inhibition of recombinant wild type UCH-L1 (unknown origin) by fluorescence based analysis.
Assay [5] deals with T4, Ubiquitin carboxyl-terminal hydrolase 28 (Homo sapiens, UniProt Q96RU2).
T4 sequence (Q96RU2 whole entry): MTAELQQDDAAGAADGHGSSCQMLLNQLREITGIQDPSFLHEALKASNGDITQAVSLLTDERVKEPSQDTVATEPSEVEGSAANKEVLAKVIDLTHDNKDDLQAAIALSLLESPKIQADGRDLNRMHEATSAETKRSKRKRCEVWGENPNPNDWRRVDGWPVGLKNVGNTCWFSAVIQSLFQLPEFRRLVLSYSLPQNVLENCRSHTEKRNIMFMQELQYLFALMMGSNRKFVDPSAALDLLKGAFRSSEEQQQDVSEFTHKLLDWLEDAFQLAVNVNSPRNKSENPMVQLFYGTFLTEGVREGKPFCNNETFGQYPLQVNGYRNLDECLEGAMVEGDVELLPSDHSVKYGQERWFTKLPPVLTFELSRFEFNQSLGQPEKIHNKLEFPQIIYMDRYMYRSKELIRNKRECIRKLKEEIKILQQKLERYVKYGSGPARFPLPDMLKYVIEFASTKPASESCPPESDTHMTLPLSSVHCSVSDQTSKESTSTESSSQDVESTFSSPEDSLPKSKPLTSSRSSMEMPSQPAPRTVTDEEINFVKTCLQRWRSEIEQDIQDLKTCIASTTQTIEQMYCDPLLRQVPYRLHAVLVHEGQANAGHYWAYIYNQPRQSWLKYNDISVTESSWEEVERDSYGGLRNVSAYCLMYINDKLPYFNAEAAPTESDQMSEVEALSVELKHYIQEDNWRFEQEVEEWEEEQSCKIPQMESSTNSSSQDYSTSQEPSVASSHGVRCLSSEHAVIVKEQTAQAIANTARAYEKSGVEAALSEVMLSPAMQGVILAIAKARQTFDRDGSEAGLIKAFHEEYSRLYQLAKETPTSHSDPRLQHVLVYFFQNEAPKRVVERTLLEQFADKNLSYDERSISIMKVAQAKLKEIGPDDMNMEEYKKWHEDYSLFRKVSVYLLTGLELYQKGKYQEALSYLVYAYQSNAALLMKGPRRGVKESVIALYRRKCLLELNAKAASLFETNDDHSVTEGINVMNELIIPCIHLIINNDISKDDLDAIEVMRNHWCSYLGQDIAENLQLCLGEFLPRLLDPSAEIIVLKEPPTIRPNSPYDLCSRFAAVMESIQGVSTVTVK
Put plainly: Inhibition of USP28 (unknown origin).

A further assay deals with HCT-116. Put plainly: Antiproliferative activity against human HCT-116 cells assessed as reduction in cell viability incubated for 48 hrs by MTT assay. Format: functional, cell-based. Particulars: HCT-116, 48 h. On the technique in general: Formazan colour is commonly taken as a measure of viable cells.
For assay [6], the target named is Ubiquitin carboxyl-terminal hydrolase 7 (Homo sapiens, UniProt Q93009). Put plainly: Inhibition of full length His-tagged human recombinant USP7.
Sequence of Ubiquitin carboxyl-terminal hydrolase 7 (Q93009 whole entry): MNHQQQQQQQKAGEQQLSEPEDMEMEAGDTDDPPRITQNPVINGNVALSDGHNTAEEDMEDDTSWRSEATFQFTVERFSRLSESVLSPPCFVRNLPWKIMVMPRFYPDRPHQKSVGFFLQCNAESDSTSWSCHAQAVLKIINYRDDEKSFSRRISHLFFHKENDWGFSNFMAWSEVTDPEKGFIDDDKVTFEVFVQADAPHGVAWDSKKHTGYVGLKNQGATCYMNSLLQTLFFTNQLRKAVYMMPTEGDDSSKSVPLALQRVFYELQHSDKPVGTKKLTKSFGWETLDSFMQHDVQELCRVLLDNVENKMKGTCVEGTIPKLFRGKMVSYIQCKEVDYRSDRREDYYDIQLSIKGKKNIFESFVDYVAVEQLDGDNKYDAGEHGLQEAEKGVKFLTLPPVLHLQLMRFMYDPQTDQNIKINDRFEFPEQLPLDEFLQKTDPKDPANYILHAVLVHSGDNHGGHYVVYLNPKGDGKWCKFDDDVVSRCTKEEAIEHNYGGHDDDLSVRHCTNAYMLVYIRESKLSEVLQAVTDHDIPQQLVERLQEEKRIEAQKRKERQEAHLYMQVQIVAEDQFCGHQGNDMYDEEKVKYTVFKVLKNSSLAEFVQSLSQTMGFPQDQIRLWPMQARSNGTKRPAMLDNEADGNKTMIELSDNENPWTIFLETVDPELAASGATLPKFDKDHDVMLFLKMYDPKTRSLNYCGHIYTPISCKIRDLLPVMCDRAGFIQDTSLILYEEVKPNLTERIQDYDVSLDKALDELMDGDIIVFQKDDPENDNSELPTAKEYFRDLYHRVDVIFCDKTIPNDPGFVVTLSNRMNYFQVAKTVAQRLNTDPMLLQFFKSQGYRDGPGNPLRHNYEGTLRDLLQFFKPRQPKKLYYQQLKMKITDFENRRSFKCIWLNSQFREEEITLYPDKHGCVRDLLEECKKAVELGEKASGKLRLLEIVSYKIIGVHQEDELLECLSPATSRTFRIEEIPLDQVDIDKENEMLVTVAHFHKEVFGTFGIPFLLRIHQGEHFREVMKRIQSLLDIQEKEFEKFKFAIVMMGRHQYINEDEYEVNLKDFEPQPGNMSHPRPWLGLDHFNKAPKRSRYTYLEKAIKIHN

What is called IC50 is the midpoint of a concentration-inhibition curve. With `COC(=O)CC[C@H](NC(=O)[C@H](C)NC[C@@H](NC(=O)OCc1ccccc1)C(C)C)C(=O)CF`, inhibition in assay [1] was half-maximal at 7700 nM (IC50). The molecule `O=C1c2ccccc2C(=O)c2oc(-c3ccc(F)cc3)nc21` displayed an IC50 in assay [2] of 880 nM. Take `C=CC(=O)N1C/C(=C\c2ccc([N+](=O)[O-])cc2)C(=O)/C(=C/c2ccc([N+](=O)[O-])cc2)C1`: on Caspase-3, the half-inhibitory concentration (IC50) worked out at 1050 nM. As to `C=CC(=O)N1CC/C(=C\c2ccc(F)c([N+](=O)[O-])c2)C(=O)/C(=C/c2ccc(F)c([N+](=O)[O-])c2)C1`, the concentration for half-maximal inhibition (IC50) at Caspase-3 was found to be 580 nM. In assay [3], `CCc1ccc(S(=O)(=O)Nc2ccc(-c3ccc(NS(=O)(=O)c4ccc(CC)cc4)cc3)cc2)cc1` came in with a 50% inhibitory concentration (IC50) of 15000 nM. Consider `N#CN1CCC[C@H]1C(=O)N1CCc2c(-c3cn[nH]c3C(F)(F)F)cccc21`, for which the concentration for half-maximal inhibition (IC50) in assay [4] came to 670 nM. With `OCCNCc1cc(Br)ccc1OCc1ccccc1`, the IC50 in assay [5] was 29600 nM. `Cc1ccc(S(=O)(=O)Nc2cc(C(F)(F)F)ccc2C(=O)Nc2nc(-c3ccccc3)cs2)cc1`: the concentration for half-maximal inhibition (IC50) with HCT-116 turned out to be 1100 nM.

`O=C1c2ccccc2C(=O)c2oc(-c3ccccc3)nc21` came in with an IC50 in assay [2] of 544 nM. Take `O=C(CCc1ccccc1)N1CCC(O)(Cn2cnc3cc(Cl)ccc3c2=O)CC1`: in assay [6], the IC50 came out at 193 nM.
